Measurements from PubChem BioAssay (NCI).
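In this assay, cells in 96-well plates receive the compound at five concentrations for 48 hours. Endpoints are linearly interpolated between the surrounding concentrations. The concentration for 50% growth inhibition is given as GI50. TGI marks complete inhibition of growth.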

What was measured:
Assay in all cases: NCI-60 cell line screen, 48 h
CCRF-CEM leukemia = test system: CCRF-CEM leukemia
HCC-2998 colon = test system: HCC-2998 colon
HCT-116 colon = test system: HCT-116 colon
SN12C renal = test system: SN12C renal
SNB-19 CNS = test system: SNB-19 CNS
MALME-3M melanoma = test system: MALME-3M melanoma
SK-OV-3 ovarian = test system: SK-OV-3 ovarian
UO-31 renal = test system: UO-31 renal
DU-145 prostate = test system: DU-145 prostate
BT-549 breast = test system: BT-549 breast

Structure (SMILES)	TGI (CCRF-CEM leukemia) [µM]	TGI (HCC-2998 colon) [µM]	TGI (HCT-116 colon) [µM]	TGI (SN12C renal) [µM]	TGI (SNB-19 CNS) [µM]	TGI (MALME-3M melanoma) [µM]	TGI (SK-OV-3 ovarian) [µM]	TGI (UO-31 renal) [µM]	GI50 (CCRF-CEM leukemia) [µM]	TGI (DU-145 prostate) [µM]	GI50 (HCC-2998 colon) [µM]	GI50 (HCT-116 colon) [µM]	GI50 (MALME-3M melanoma) [µM]	GI50 (SN12C renal) [µM]	GI50 (SNB-19 CNS) [µM]	GI50 (UO-31 renal) [µM]	GI50 (SK-OV-3 ovarian) [µM]	GI50 (BT-549 breast) [µM]	TGI (BT-549 breast) [µM]	GI50 (DU-145 prostate) [µM]
COc1cccc2c(SCC(=O)Nc3ccccc3-c3ccccc3NC(=O)CSc3c4ccccc4nc4c(OC)cccc34)c3ccccc3nc12	> 100	> 100	> 100	> 100	> 100															
O=C(O)/C(Cl)=C(Cl)/C=N/NC(=O)c1cc2ccccc2cc1O	51.7		> 100	> 100	> 100	> 100	> 100	6.36												
Cc1ccc(C)c(NC(=O)C(=O)C2C(=O)N(c3ccccc3)N=C2N)c1 (stereo not drawn)	> 100	> 100	> 100	> 100	> 100	> 100		> 100												
COc1ccc(NC(=O)c2oc3cc(O)ccc3c(=O)c2C)c([N+](=O)[O-])c1	> 100	> 100	> 100	> 100	> 100	> 100	> 100	> 100												
COc1ccc(/C=C\c2cc(OC)c(OC)c(OC)c2)cc1OC(=O)CC(N)C(=O)O (stereo not drawn)		> 100		> 100				58.6	0.000495	0.0187	0.0951	4.07e-05	0.00102	0.00412	0.000909	0.0017				
CCCCCN(CCCCC)C(=O)[C@H](CCC(=O)O)NC(=O)c1cc2ccccc2[nH]1	> 100	> 100	92.5	> 100	> 100	> 100	> 100	> 100												
C[C@]12Cc3conc3C(O)=C1CC[C@@H]1C2CC[C@@]2(C)C1CC[C@]2(C)O (stereo partly drawn)	46.5	62.1	39.3	> 100	> 100	59.2	57.4	50.3												
COC(=O)C(=O)C(C(C)=O)C(=O)NCc1ccccc1 (stereo not drawn)	> 100	> 100	> 100	> 100	> 100	> 100		> 100												
CC(=O)[CH-]C(=O)c1ccccc1.CC(=O)[CH-]C(=O)c1ccccc1.CC[C@H](/C=C/C(C)[C@H]1CCC2[C@@H]3CC=C4C[C@@H]([O-])CC[C@]4(C)C3CC[C@@]21C)C(C)C.CC[C@H](/C=C/C(C)[C@H]1CCC2[C@@H]3CC=C4C[C@@H]([O-])CC[C@]4(C)C3CC[C@@]21C)C(C)C.Cl.[Ti+4] (stereo partly drawn)	> 25	> 25	> 25	> 25	> 25	> 25	> 25	> 25	> 25		> 25	> 25	10.5	> 25	> 25	> 25	> 25			
N#CC(C(=N/O)/C(=N\O)C(C#N)c1ccccc1)c1ccccc1 (stereo not drawn)	> 100	> 100	> 100	> 100	> 100	> 100	> 100	> 100												
Cc1cc(Cl)ccc1N=C1NC(=O)C(CC(=O)Nc2cccc(C)c2C)S1 (stereo not drawn)	> 100	65.1		82.3	68.3	65.1	55.9	51.5												
O=C1NC2(CCCCC2)C2CCCCC=C12 (stereo not drawn)	> 100		> 100	> 100	> 100	> 100	> 100	> 100												
CCCCCCCCC(C)CCCCCCCCC(=O)OCC(COP(=O)([O-])OCC[N+](C)(C)C)OC(=O)CCCCCCCCC(C)CCCCCCCC (stereo not drawn)	> 100	> 100	> 100	> 100	> 100	> 100	> 100	> 100												
Nn1c(-c2cccc(Cl)c2)nc2ccccc2c1=O	> 100	> 100	> 100	> 100	> 100	> 100	> 100	> 100												
COC(=O)c1ccc(NC(=O)c2ccc(NC3=C(Cl)C(=O)N(Cc4ccccc4)C3=O)cc2)cc1			11.8	21.7	30.4		38.3	31.7		31.2		3.47		8.13	16.5	17.9	20.7	16.4	32.1	17.4
COC(=O)C12C34C=CC5(CCC6(C=CC1(CC3)O6)C52C(=O)OC)O4 (stereo not drawn)	> 100	> 100	> 100	> 100	> 100	> 100	> 100													
O=C(COC(=O)c1cccc2c(=O)c3ccccc3[nH]c12)Nc1ccc(Cl)cc1	> 100	> 100	> 100	> 100	> 100	> 100	> 100	> 100												

Structure (SMILES)	TGI (CCRF-CEM leukemia) [µM]	TGI (HCC-2998 colon) [µM]	TGI (HCT-116 colon) [µM]	TGI (SN12C renal) [µM]	TGI (SNB-19 CNS) [µM]	TGI (MALME-3M melanoma) [µM]	TGI (SK-OV-3 ovarian) [µM]	TGI (UO-31 renal) [µM]	GI50 (CCRF-CEM leukemia) [µM]	TGI (DU-145 prostate) [µM]	GI50 (HCC-2998 colon) [µM]	GI50 (HCT-116 colon) [µM]	GI50 (MALME-3M melanoma) [µM]	GI50 (SN12C renal) [µM]	GI50 (SNB-19 CNS) [µM]	GI50 (UO-31 renal) [µM]	GI50 (SK-OV-3 ovarian) [µM]	GI50 (BT-549 breast) [µM]	TGI (BT-549 breast) [µM]	GI50 (DU-145 prostate) [µM]
C[C@]12CC(C=O)C(=O)C(O)=C1CC[C@@H]1C2CC[C@@]2(C)C1CC[C@]2(C)O (stereo partly drawn)		31.1	54.3	42.4	63.5	22	46.3	51.1												
C=CC(=O)Nc1ccccc1CC(c1c[nH]c2ccccc12)c1c[nH]c2ccccc12	54.2	33.4		30.6	31.8	33.3	45.7	31.7												
COc1c(-c2ccc3c(c2)OCO3)oc2cc(O)cc(O)c2c1=O	> 100	> 100	> 100	> 100	> 100		85.4	> 100		> 100										
CC(C)N1C(C)[C@@H](c2ccccc2)O[P@@]1(=O)CC1=CCCCC1 (stereo partly drawn)	> 100	> 100	> 100	> 100		> 100	> 100	> 100												
O=C(NCCCl)Nc1ccccc1	> 100	> 100	> 100	> 100	> 100	> 100	> 100	> 100		> 100										
CN(CCCN1C(=O)c2cccc3cc([N+](=O)[O-])cc(c23)C1=O)CCN(C)CCCN1C(=O)c2cccc3cc([N+](=O)[O-])cc(c23)C1=O	> 39.3	> 39.3	> 39.3	> 39.3	> 39.3	> 39.3	> 39.3													
CCOC(=O)/C(C#N)=C\Sc1ccccc1	> 100		59.8	31.7	> 100		74.7	24.1												
COC(=O)c1ccc(C(=O)OC)c2nc3cc(Cl)ccc3nc12	> 100	> 100	> 100	> 100	> 100	> 100	> 100	> 100												
CCC[CH2][Sn]([CH2]CCC)([O]C(=O)c1cc(F)ccc1F)[O]C(=O)c1cc(F)ccc1F	1.25	2.76	2.5	2.39	2.9	2.1	5.64	2.79	0.257		1.43	1.25	0.703	1.16	1.56	1.47	2.79			
O=[N+]([O-])c1cccc(S(=O)(=O)N/N=C/c2cc(I)cc([N+](=O)[O-])c2O)c1	47.9	> 100	71.1	64.6	65.5	64.2	73.2	67.5												
CCOC(=O)C(=O)Nc1c(C)cccc1C(C)(C)C		> 100	> 100	> 100	> 100	> 100	> 100	> 100												
CCCS(=O)c1nc(COC(=O)NC)c(COC(=O)NC)n1C (stereo not drawn)	> 100	> 100	> 100	> 100	> 100	> 100	> 100	> 100												
Cc1ccc(C2[C@H]3C(=O)N(c4ccc(Cc5ccc(N6C(=O)[C@@H]7ON(c8ccccc8)C(c8ccc(C)cc8)[C@@H]7C6=O)cc5)cc4)C(=O)[C@H]3ON2c2ccccc2)cc1 (stereo partly drawn)	> 100	> 100		> 100		> 100	> 100	> 100												
O=[N+]([O-])c1ccc(C2SCc3nc4ccccc4n32)cc1 (stereo not drawn)	> 100			> 100	> 100	> 100	> 100	> 100												
O=C1NC2C3CC(OCc4ccccc4)(OCc4ccccc4)C2OC3O1 (stereo not drawn)	> 50	> 50	> 50	> 50		> 50	> 50	> 50												
COc1cc2c3cc1Oc1c(OC)c(OC)cc4c1[C@@H](Cc1ccc(O)c(c1)Oc1ccc(cc1)C[C@@H]3N(C)CC2)N(C)CC4	45.2	20.4	21.1	46.5	45.3	31.7		30.1												
